Measured values from ChEMBL document CHEMBL4823289, “Conformational-Analysis-Guided Discovery of 2,3-Disubstituted Pyridine IDO1 Inhibitors” (ACS Med Chem Lett, 2021).

How the values were obtained:
[1] = molecular target: T1, Indoleamine 2,3-dioxygenase 1 (Homo sapiens, UniProt P14902); test: Inhibition of IDO1 in IFNgamma/LPS-stimulated human whole blood preincubated for 4 hrs followed by IFNgamma/LPS stimulation and incubated for 18 hrs by Rapid-fire mass spectrometry analysis; format: tissue-based
[2] = Clearance in rat at 0.5 mg/kg, iv; format: ADME, organism-based; settings: in vivo
[3] = tested on: UDP-glucuronosyltransferases (UGT); test: Metabolic stability assessed as dog UGT-mediated metabolism by measuring half life; format: ADME, Canis lupus familiaris
[4] = AUC in dog at 1 mg/kg, iv; format: ADME, organism-based, Canis lupus familiaris; design: dose 1 mg/kg; settings: in vivo
[5] = Clearance in cynomolgus monkey at 1 mg/kg, iv; format: ADME, organism-based, Macaca fascicularis; settings: in vivo
[6] = AUC in rat at 10 mg/kg, po; format: ADME, organism-based; design: dose 10 mg/kg; settings: in vivo
[7] = Apparent permeability across apical to basolateral side in human Caco-2 cells; format: ADME, cell-based
[8] = molecular target: hERG (KCNH2) (Homo sapiens, UniProt Q12809); test: Inhibition of hERG (unknown origin) at 30 uM relative to control
[9] = Drug metabolism in human hepatocytes assessed as demethylated metabolite formation; format: ADME, cell-based, Hepatocyte
[10] = Oral bioavailability in rat at 10 mg/kg; format: ADME, organism-based; settings: in vivo
[11] = AUC in rat at 0.5 mg/kg, iv; format: ADME, organism-based; design: dose 0.5 mg/kg; settings: in vivo
[12] = Half life in rat at 0.5 mg/kg, iv; format: ADME, organism-based; settings: in vivo
[13] = Oral bioavailability in cynomolgus monkey at 5 mg/kg; format: ADME, organism-based, Macaca fascicularis; settings: in vivo
[14] = Oral bioavailability in dog at 5 mg/kg; format: ADME, organism-based, Canis lupus familiaris; settings: in vivo
[15] = AUC (0 to 24 hrs) in human SK-OV-3 cells xenografted in nu/nu mouse xenograft model measured in tumor at 120 mg/kg, po QD; format: ADME, organism-based; design: time < 24 hr, route oral, dose 120 mg/kg
[16] = Volume of steady state distribution in dog at 1 mg/kg, iv; format: ADME, organism-based, Canis lupus familiaris; settings: in vivo, read-out: Vdss
[17] = AUC in mouse at 10 mg/kg, po; format: ADME, organism-based; design: dose 10 mg/kg; settings: in vivo
[18] = Volume of steady state distribution in mouse at 1 mg/kg, iv; format: ADME, organism-based; settings: in vivo, read-out: Vdss
[19] = AUC in cynomolgus monkey at 1 mg/kg, iv; format: ADME, organism-based, Macaca fascicularis; design: dose 1 mg/kg; settings: in vivo
[20] = tested on: UDP-glucuronosyltransferases (UGT); test: Metabolic stability assessed as rat UGT-mediated metabolism by measuring half life; format: ADME
[21] = molecular target: Cytochrome P450 2C9 (Homo sapiens, UniProt P11712); test: Inhibition of human CYP2C9
[22] = Half life in cynomolgus monkey at 1 mg/kg, iv; format: ADME, organism-based, Macaca fascicularis; settings: in vivo
[23] = Half life in dog at 1 mg/kg, iv; format: ADME, organism-based, Canis lupus familiaris; settings: in vivo
[24] = Metabolic stability in rat liver microsomes assessed as parent compound remaining at 0.5 uM after 10 mins incubation by LC-MS/MS analysis relative to control; format: ADME, Microsome; settings: read-out: Activity
[25] = Clearance in mouse at 1 mg/kg, iv; format: ADME, organism-based; settings: in vivo
[26] = tested on: Cytochrome P450 (CYP); test: Metabolic stability assessed as dog CYP-mediated metabolism by measuring half life; format: ADME, Canis lupus familiaris
[27] = molecular target: T1, Indoleamine 2,3-dioxygenase 1; test: Inhibition of IDO1 in IFNgamma-stimulated human HeLa cells preincubated for 2 hrs followed by recombinant human IFNgamma stimulation and measured after 18 hrs by fluorescence based microplate reader assay
[28] = Apparent permeability of the compound at pH 7.4 by PAMPA; format: ADME
[29] = molecular target: Cytochrome P450 2C19 (Homo sapiens, UniProt P33261); test: Inhibition of human CYP2C19
[30] = AUC in mouse at 1 mg/kg, iv; format: ADME, organism-based; design: dose 1 mg/kg; settings: in vivo
[31] = tested on: Cytochrome P450 (CYP); test: Metabolic stability assessed as cynomolgus monkey CYP-mediated metabolism by measuring half life; format: ADME, Macaca fascicularis
[32] = Drug metabolism in dog hepatocytes assessed as demethylated metabolite formation; format: ADME, cell-based, Canis lupus familiaris, Hepatocyte
[33] = Oral bioavailability in mouse at 10 mg/kg; format: ADME, organism-based; settings: in vivo
[34] = Metabolic stability in mouse liver microsomes assessed as parent compound remaining at 0.5 uM after 10 mins incubation by LC-MS/MS analysis relative to control; format: ADME, Microsome; settings: read-out: Activity
[35] = Apparent permeability across basolateral to apical side in human Caco-2 cells; format: ADME, cell-based
[36] = tested on: UDP-glucuronosyltransferases (UGT); test: Metabolic stability assessed as cynomolgus monkey UGT-mediated metabolism by measuring half life; format: ADME, Macaca fascicularis
[37] = tested on: UDP-glucuronosyltransferases (UGT); test: Metabolic stability assessed as mouse UGT-mediated metabolism by measuring half life; format: ADME
[38] = AUC in cynomolgus monkey at 5 mg/kg, po; format: ADME, organism-based, Macaca fascicularis; design: dose 5 mg/kg; settings: in vivo
[39] = molecular target: T2, Cytochrome P450 2C8 (Homo sapiens, UniProt P10632); test: Inhibition of human CYP2C8
T2 sequence (P10632 whole entry): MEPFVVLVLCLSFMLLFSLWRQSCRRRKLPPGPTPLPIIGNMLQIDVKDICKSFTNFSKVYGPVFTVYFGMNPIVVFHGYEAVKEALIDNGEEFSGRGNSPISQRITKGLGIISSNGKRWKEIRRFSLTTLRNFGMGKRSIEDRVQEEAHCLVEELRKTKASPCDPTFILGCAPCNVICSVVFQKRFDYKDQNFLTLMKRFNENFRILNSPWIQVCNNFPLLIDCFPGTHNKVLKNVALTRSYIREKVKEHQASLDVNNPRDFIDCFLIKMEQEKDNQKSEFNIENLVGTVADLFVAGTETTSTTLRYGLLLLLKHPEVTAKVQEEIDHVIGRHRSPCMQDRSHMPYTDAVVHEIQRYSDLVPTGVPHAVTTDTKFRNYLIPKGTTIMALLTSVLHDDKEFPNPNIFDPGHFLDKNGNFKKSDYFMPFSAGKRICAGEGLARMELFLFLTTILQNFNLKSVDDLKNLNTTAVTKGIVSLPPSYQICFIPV

[40] = AUC (0 to 24 hrs) in nu/nu mouse xenograft model xenografted with human SK-OV-3 cells measured in tumor at 180 mg/kg, po QD; format: ADME, organism-based; design: time < 24 hr, route oral, dose 180 mg/kg
[41] = Drug metabolism in cynomolgus monkey hepatocytes assessed as demethylated metabolite formation; format: ADME, cell-based, Macaca fascicularis, Hepatocyte
[42] = molecular target: Voltage-gated inwardly rectifying potassium channel KCNH2 (Homo sapiens, UniProt Q12809); test: Inhibition of hERG (unknown origin)
[43] = Half life in mouse at 1 mg/kg, iv; format: ADME, organism-based; settings: in vivo
[44] = molecular target: UDP-glucuronosyltransferases (UGT) (Homo sapiens, UniProt O60656+O75310+O75795+P06133+P0DTE4+P0DTE5+P16662+P19224+P22309+P22310+P35503+P35504+P36537+P54855+Q6UWM9+Q9BY64+Q9HAW7+Q9HAW8+Q9HAW9); test: Metabolic stability assessed as human UGT-mediated metabolism by measuring half life; format: ADME, protein assay
[45] = tested on: Cytochrome P450 (CYP); test: Metabolic stability assessed as mouse CYP-mediated metabolism by measuring half life; format: ADME
[46] = molecular target: Indoleamine 2,3-dioxygenase 1 (Mus musculus, UniProt P28776); test: Inhibition of IDO1 in IFNgamma-stimulated mouse M109 cells preincubated for 2 hrs followed by recombinant murine IFNgamma stimulation and measured after 18 hrs by fluorescence based microplate reader assay; format: cell-based
[47] = Clearance in dog at 1 mg/kg, iv; format: ADME, organism-based, Canis lupus familiaris; settings: in vivo
[48] = Volume of steady state distribution in rat at 0.5 mg/kg, iv; format: ADME, organism-based; settings: in vivo, read-out: Vdss
[49] = AUC (0 to 24 hrs) in human SK-OV-3 cells xenografted in nu/nu mouse xenograft model measured in tumor at 60 mg/kg, po QD; format: ADME, organism-based; design: time < 24 hr, route oral, dose 60 mg/kg
[50] = Drug metabolism in rat hepatocytes assessed as demethylated metabolite formation; format: ADME, cell-based, Hepatocyte
[51] = AUC in dog at 5 mg/kg, po; format: ADME, organism-based, Canis lupus familiaris; design: dose 5 mg/kg; settings: in vivo
[52] = tested on: Cytochrome P450 (CYP); test: Metabolic stability assessed as rat CYP-mediated metabolism by measuring half life; format: ADME
[53] = molecular target: Cytochrome P450 (CYP) (Homo sapiens, UniProt P04798+P05177+P05181+P08684+P10632+P10635+P11509+P11712+P13584+P20813+P20815+P20853+P24462+P24903+P33260+P33261+P51589+P78329+P98187+Q02928+Q08477+Q16678+Q16696+Q5TCH4+Q6VVX0+Q7Z449+Q8TAV3+Q96SQ9+Q9HB55); test: Metabolic stability assessed as human CYP-mediated metabolism by measuring half life; format: ADME, protein assay
[54] = AUC (0 to 24 hrs) in human SK-OV-3 cells xenografted in nu/nu mouse xenograft model measured in tumor at 20 mg/kg, po QD; format: ADME, organism-based; design: time < 24 hr, route oral, dose 20 mg/kg
[55] = Volume of steady state distribution in cynomolgus monkey at 1 mg/kg, iv; format: ADME, organism-based, Macaca fascicularis; settings: in vivo, read-out: Vdss
[56] = Metabolic stability in human liver microsomes assessed as parent compound remaining at 0.5 uM after 10 mins incubation by LC-MS/MS analysis relative to control; format: ADME, Microsome; settings: read-out: Activity

T1 sequence (P14902 whole entry): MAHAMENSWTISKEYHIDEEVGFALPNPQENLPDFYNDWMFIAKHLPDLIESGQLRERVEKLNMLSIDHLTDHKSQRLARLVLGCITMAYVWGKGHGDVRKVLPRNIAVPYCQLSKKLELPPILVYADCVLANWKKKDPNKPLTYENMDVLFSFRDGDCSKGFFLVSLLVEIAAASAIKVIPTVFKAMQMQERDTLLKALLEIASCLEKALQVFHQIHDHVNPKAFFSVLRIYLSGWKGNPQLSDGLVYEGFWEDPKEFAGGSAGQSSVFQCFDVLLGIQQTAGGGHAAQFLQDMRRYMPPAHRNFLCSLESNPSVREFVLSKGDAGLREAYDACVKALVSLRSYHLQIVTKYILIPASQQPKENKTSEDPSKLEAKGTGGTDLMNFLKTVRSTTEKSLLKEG
Indoleamine 2,3-dioxygenase 1 (Mus musculus, UniProt P28776), sequence (P28776 whole entry): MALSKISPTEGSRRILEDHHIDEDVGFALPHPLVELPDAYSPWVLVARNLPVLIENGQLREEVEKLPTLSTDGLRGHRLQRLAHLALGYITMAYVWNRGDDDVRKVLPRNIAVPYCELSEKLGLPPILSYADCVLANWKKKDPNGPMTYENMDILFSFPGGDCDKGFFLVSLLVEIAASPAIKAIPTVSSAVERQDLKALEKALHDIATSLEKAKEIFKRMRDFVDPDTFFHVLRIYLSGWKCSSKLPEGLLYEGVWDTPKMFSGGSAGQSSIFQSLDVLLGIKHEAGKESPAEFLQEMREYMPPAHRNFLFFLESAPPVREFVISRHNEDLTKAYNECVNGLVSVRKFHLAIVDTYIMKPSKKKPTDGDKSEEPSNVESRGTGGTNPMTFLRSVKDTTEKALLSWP
hERG (KCNH2), sequence (Q12809 whole entry): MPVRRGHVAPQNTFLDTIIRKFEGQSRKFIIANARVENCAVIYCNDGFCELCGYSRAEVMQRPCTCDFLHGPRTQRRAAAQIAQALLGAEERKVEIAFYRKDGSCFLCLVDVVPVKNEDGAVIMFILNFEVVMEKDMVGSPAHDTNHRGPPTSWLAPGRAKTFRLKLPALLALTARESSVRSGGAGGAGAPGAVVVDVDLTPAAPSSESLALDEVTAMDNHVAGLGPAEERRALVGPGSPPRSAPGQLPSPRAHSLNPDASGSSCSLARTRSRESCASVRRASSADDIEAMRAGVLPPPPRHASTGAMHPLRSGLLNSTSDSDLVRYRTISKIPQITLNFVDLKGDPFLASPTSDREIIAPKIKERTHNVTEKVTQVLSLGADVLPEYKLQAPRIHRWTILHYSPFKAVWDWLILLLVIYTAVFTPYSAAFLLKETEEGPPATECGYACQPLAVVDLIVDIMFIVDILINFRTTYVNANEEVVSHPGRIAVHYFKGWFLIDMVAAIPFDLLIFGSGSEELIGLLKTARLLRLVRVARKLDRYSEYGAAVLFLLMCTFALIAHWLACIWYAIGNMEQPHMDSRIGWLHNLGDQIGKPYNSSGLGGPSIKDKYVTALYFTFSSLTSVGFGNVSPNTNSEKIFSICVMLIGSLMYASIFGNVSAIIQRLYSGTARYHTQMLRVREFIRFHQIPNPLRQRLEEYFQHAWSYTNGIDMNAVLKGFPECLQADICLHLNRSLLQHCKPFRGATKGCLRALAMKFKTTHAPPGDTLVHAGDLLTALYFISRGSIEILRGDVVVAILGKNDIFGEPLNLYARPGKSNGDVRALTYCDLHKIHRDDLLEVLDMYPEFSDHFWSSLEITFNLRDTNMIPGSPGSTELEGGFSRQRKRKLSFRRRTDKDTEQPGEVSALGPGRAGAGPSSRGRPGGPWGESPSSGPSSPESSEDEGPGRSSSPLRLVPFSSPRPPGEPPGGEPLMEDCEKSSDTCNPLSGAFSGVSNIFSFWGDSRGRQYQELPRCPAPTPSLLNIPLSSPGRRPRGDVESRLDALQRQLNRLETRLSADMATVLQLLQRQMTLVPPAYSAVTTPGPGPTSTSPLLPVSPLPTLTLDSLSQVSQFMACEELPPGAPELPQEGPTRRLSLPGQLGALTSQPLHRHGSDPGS
Voltage-gated inwardly rectifying potassium channel KCNH2, sequence (Q12809 whole entry): as above
Cytochrome P450 2C9, sequence (P11712 whole entry): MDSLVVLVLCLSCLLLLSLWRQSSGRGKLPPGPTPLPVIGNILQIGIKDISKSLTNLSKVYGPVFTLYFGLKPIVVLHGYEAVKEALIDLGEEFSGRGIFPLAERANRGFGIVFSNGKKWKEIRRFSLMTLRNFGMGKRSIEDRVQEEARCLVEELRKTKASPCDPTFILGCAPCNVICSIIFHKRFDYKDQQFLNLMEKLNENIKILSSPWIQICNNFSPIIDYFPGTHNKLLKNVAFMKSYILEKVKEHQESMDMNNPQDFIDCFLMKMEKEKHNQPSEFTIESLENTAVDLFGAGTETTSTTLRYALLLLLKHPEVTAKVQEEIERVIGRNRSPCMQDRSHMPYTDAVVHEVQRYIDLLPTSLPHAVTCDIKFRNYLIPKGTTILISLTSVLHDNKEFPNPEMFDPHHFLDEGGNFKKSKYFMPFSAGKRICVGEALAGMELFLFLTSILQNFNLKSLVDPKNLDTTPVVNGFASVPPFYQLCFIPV
Cytochrome P450 2C19, sequence (P33261 whole entry): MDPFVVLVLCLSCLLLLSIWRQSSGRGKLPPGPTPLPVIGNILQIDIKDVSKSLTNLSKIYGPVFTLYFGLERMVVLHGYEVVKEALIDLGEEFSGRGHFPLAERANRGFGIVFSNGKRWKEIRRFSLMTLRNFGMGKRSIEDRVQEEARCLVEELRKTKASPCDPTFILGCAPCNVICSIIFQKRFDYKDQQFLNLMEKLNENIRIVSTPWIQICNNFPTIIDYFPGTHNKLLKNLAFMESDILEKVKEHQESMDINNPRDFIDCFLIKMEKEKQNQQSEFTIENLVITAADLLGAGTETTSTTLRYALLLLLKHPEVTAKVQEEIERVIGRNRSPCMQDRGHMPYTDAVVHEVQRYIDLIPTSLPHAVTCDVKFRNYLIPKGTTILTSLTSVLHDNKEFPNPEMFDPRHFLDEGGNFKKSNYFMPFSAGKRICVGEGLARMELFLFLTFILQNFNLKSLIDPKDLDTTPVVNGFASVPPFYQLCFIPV

## CC[C@@H](NC(=O)c1ccc(OC)nc1)[C@H]1CC[C@@H](c2ccnc(OC)c2C(F)F)CC1
[1]
  IC50: 0.0023 µM
[2]
  clearance: 15 mL/min/kg
[3]
  half-life: > 2 h
[4]
  AUC: 2.3 µM·h
[5]
  clearance: 29 mL/min/kg
[6]
  AUC: 8.7 µM·h
[7]
  Papp A→B: 12.2 ×10⁻⁶ cm/s
[8]
  inhibition at 30 µM: 61%
[9]
  Drug metabolism: Metabolite_Detected
[10]
  bioavailability: 34%
[11]
  AUC: 1.3 µM·h
[12]
  half-life: 7.1 h
[13]
  F: 4.5%
[14]
  bioavailability: 28%
[15]
  AUC at 24 h: 13 µM·h
[16]
  Vd: 9 L/kg
[17]
  AUC: 3.9 µM·h
[18]
  Vd: 6.2 L/kg
[19]
  AUC: 1.3 µM·h
[20]
  half-life: > 2 h
[21]
  IC50: 1.89 µM
[22]
  half-life: 11 h
[23]
  half-life: 14 h
[24]
  remaining at 10 min, 0.5 µM: 90%
[25]
  clearance: 33 mL/min/kg
[26]
  half-life: 7 min
[27]
  IC50: 0.002 µM
[28]
  Papp: 107 ×10⁻⁶ cm/s
[29]
  IC50: 9.5 µM
[30]
  AUC: 1.2 µM·h
[31]
  half-life: 3 min
[32]
  Drug metabolism: Metabolite_Detected
[33]
  bioavailability: 33%
[34]
  remaining at 10 min, 0.5 µM: 60%
[35]
  Papp B→A: 5.6 ×10⁻⁶ cm/s
[36]
  half-life: > 2 h
[37]
  half-life: > 2 h
[38]
  AUC: 0.029 µM·h
[39]
  IC50: 4.01 µM
[40]
  AUC at 24 h: 13 µM·h
[41]
  Drug metabolism: Metabolite_Detected
[42]
  IC50: 17.4 µM
[43]
  half-life: 5 h
[44]
  half-life: > 2 h
[45]
  half-life: 0.183 h
[46]
  IC50: 0.014 µM
[47]
  clearance: 18 mL/min/kg
[48]
  Vd: 4 L/kg
[49]
  AUC at 24 h: 9.2 µM·h
[50]
  Drug metabolism: Metabolite_Detected
[51]
  AUC: 3.2 µM·h
[52]
  half-life: 0.333 h
[53]
  half-life: 0.533 h
[54]
  AUC at 24 h: 7.9 µM·h
[55]
  Vd: 4.5 L/kg
[56]
  remaining at 10 min, 0.5 µM: 87%
